Tested on: hemoglobin (Hb)
Assay: Phase 2 study in hemodialysis subjects converting from epoetin alfa, Main Study: efficacy (hemoglobin)
Type: in vivo, human
Conditions: for Change in Hb from Primary Evaluation Period to Secondary Evaluation Period, Mean (SD) / Change in Hb from Primary Evaluation Period to Secondary Evaluation Period, Median / Hb at Primary Evaluation Period (Average of Weeks 10 to 12), Mean (SD) / Hb at Primary Evaluation Period (Average of Weeks 10 to 12), Median / Hb at Secondary Evaluation Period (Average of Weeks 18 to 20), Mean (SD) / Hb at Secondary Evaluation Period (Average of Weeks 18 to 20), Median: completed 12 weeks of treatment
Excerpt: The primary objective was to assess the efficacy and safety of daily dosing of vadadustat compared to epoetin alfa for 12 weeks in hemodialysis subjects. Additional objectives included to assess the efficacy and safety of three times weekly (TIW) dosing of vadadustat in selected hemodialysis subjects who have been successfully managed with daily dosing of vadadustat through Week 12, to evaluate the PK/PD of daily and TIW dosing of vadadustat in hemodialysis subjects compared to epoetin alfa, and to assess the efficacy and safety of several dosing strategies of vadadustat compared to epoetin alfa during a 20-week Treatment Period in hemodialysis subjects.
The Main study population consisted of adult subjects receiving chronic, outpatient in-center hemodialysis three times weekly (TIW), with 2 screening hemoglobin (Hb) values between 8.5 and 11.0 g/dL (inclusive) and on maintenance treatment with epoetin alfa <300 U/kg/week.
Efficacy Endpoints. The primary endpoint was the mean change in Hb between Baseline (average pretreatment Hb) and the primary evaluation period (average Hb from Weeks 10 to 12). Secondary endpoints included proportion of subjects with Hb values within the target range (10.0 to 11.0 g/dL, inclusive) at the primary evaluation period (Weeks 10-12) and for subjects who transitioned to TIW vadadustat dosing, mean change in Hb from primary evaluation period (average Hb from Weeks 10-12) to the secondary period (average Hb from Weeks 18-20). Other secondary endpoints included mean change in Hb from Baseline (average pretreatment Hb) and the secondary evaluation period (average Hb from Weeks 18-20), proportion of subjects with Hb values within the target range (10.0 to 11.0 g/dL, inclusive) at the secondary evaluation period (Weeks 18 to 20), for subjects who transitioned to TIW vadadustat dosing, proportion of subjects with Hb values within the target range (10.0 to 11.0 g/dL, inclusive) at the secondary evaluation period (Weeks 18-20), proportion of subjects with a mean increase in Hb from Baseline to the primary evaluation period ≥0.5 g/dL (average Hb from Weeks 10-12) or with Hb values within the target range (10.0 to 11.0 g/dL, inclusive) at the primary evaluation period (Weeks 10-12), proportion of subject with a mean increase in Hb from Baseline to the secondary evaluation period ≥0.5 g/dL (average Hb from Weeks 18-20) or with Hb values within the target range (10.0 to 11.0 g/dL, inclusive) at the secondary evaluation period (Weeks 18-20), intravenous (IV) iron supplementation, ESA rescue, and RBC transfusion.
Study Design. This was a Phase 2, randomized, open-label study to evaluate vadadustat for the treatment of anemia in hemodialysis subjects converting from epoetin alfa therapy. For all subjects (Main study and ESA hyporesponder parallel study), the study included a Screening Period, a study Treatment Period, and a Safety Follow-Up Period as described below. PK and PD sampling were done throughout the study. The aim was to achieve and maintain Hb levels within the target range of 10.0 to 11.0 g/dL, inclusive, while targeting the middle of the range and minimizing excursions outside the target range.
Randomization. Subjects were randomized to either a vadadustat treatment arm or epoetin alfa treatment arm. Randomization was stratified by mean weekly epoetin alfa dose calculated over a period of 8 weeks prior to SV2: low epoetin alfa dose group (≤90 U/kg/week) or high epoetin alfa dose group (>90 to <300 U/kg/week). In the low epoetin alfa dose group, subjects were randomized in a 3:3:2 ratio to receive either an initial vadadustat daily dose of 450 mg (3 tablets) or 300 mg (2 tablets), or epoetin alfa. In the high epoetin alfa dose group, subjects were randomized in a 3:3:3:2 ratio to receive either an initial vadadustat daily dose of 600 mg (4 tablets), 450 mg (3 tablets) or 300 mg (2 tablets), or epoetin alfa.
Study Treatment Period (Baseline/Day 1 to Week 20). […]

[1] = Vadadustat, subjects did not switch
[2] = Vadadustat, subjects switched from QD to TIW
[3] = whole treatment group, Main Study

O=C(O)CNC(=O)c1ncc(-c2cccc(Cl)c2)cc1O [vadadustat, {[5-(3-chlorophenyl)-3-hydroxypyridine-2-carbonyl]amino}acetic acid]
Mean change from baseline in Hb over time, versus comparator (Randomized population, FIG. 13 and FIG. 14): lower than the epoetin alfa treatment group throughout
Change in Hb from Primary Evaluation Period to Secondary Evaluation Period, Mean (SD) (Vadadustat Total, Overall): −0.064 (1.2236) g/dL
Change in Hb from Primary Evaluation Period to Secondary Evaluation Period, Median (Vadadustat Total, Overall): -0.033 g/dL
Hb at Primary Evaluation Period (Average of Weeks 10 to 12), Mean (SD) (Vadadustat Total, Overall): 9.809 (1.1548) g/dL
Hb at Primary Evaluation Period (Average of Weeks 10 to 12), Median (Vadadustat Total, Overall): 9.900 g/dL
Hb at Secondary Evaluation Period (Average of Weeks 18 to 20), Mean (SD) (Vadadustat Total, Overall): 9.876 (0.8867) g/dL
Hb at Secondary Evaluation Period (Average of Weeks 18 to 20), Median (Vadadustat Total, Overall): 9.800 g/dL
Change in Hb from Primary Evaluation Period to Secondary Evaluation Period, Mean (SD) [1]: 0.039 g/dL
Change in Hb from Primary Evaluation Period to Secondary Evaluation Period, Median [1]: 0.067 g/dL
Hb at Primary Evaluation Period (Average of Weeks 10 to 12), Mean (SD) [1]: 9.694 (1.2248) g/dL
Hb at Primary Evaluation Period (Average of Weeks 10 to 12), Median [1]: 9.483 g/dL
Hb at Secondary Evaluation Period (Average of Weeks 18 to 20), Mean (SD) [1]: 9.854 (0.8378) g/dL
Hb at Secondary Evaluation Period (Average of Weeks 18 to 20), Median [1]: 9.800 g/dL
Change in Hb from Primary Evaluation Period to Secondary Evaluation Period, Mean (SD) (Vadadustat, subjects did not switch, listed as Vadadustat): 0.039 (1.2286) g/dL
Change in Hb from Primary Evaluation Period to Secondary Evaluation Period, Mean (SD) [2]: -0.422 g/dL
Change in Hb from Primary Evaluation Period to Secondary Evaluation Period, Median [2]: -0.350 g/dL
Hb at Primary Evaluation Period (Average of Weeks 10 to 12), Mean (SD) [2]: 10.376 (0.3754) g/dL
Hb at Primary Evaluation Period (Average of Weeks 10 to 12), Median [2]: 10.433 g/dL
Hb at Secondary Evaluation Period (Average of Weeks 18 to 20), Mean (SD) [2]: 9.955 (1.0716) g/dL
Hb at Secondary Evaluation Period (Average of Weeks 18 to 20), Median [2]: 9.900 g/dL
Change in Hb from Primary Evaluation Period to Secondary Evaluation Period, Mean (SD) (Vadadustat, subjects switched from QD to TIW, listed as Vadadustat): −0.422 (1.1708) g/dL
proportion of subjects having Hb values within target range at Weeks 10 to 12 (vadadustat 300 mg group of the high epoetin alfa stratum): 8.3%
course of Hb versus baseline (vadadustat 300 mg, high epoetin alfa stratum): decrease from baseline in Hb up to Week 10, after which Hb began to return towards baseline
mean (SD) Hb at the PEP (Weeks 10 to 12) [3]: 9.78 (1.048) g/dL
mean (SD) changes from baseline in Hb at the PEP [3]: −0.35 (0.976) g/dL
proportion of subjects having Hb values within target range at the PEP (Weeks 10 to 12) [3]: 32.7%
